What follows are compounds tested on Meloidogyne incognita (assay: Meloidogyne incognita test (sand, lettuce, gall formation)). Conditions: 20 ppm, after 14 days.
Format: in vivo
Outline: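 Gall counts on lettuce roots were scored after 14 days in sand inoculated with root-knot nematode eggs/larvae plus compound diluted in water. Values run from 0% (galls as in untreated plants) to 100% (gall-free).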

For `COc1ccc(Cl)c(S(=O)(=O)NC(=O)c2cn(-c3cc(Cl)cc(Cl)c3)cn2)c1` [I-217], the “nematicidal efficacy (formation of galls)” value was 90%.

Same assay, conditions: Meloidogyne incognita, 336 h, 4 ppm, after 14 days; read-out: nematicidal efficacy (formation of galls)

`CCOc1ccc(Cl)c(S(=O)(=O)NC(=O)c2cn(-c3c(F)cccc3F)cn2)c1` [I-356] showed a pest or weed control at 4 ppm of 90%.

Same assay, conditions: Meloidogyne incognita, 336 h, 20 ppm, after 14 days; read-out: nematicidal efficacy (formation of galls)

`COc1ccc(Cl)c(S(=O)(=O)NC(=O)c2cn(-c3cc(Br)cc(Br)c3)cn2)c1` [I-282] and `COc1ccc(Cl)c(S(=O)(=O)NC(=O)c2cn(-c3cc(Br)cc(C(F)(F)F)c3)cn2)c1` [I-279] are the same in pest or weed control at 20 ppm: 90% for the first, 90% for the second.

Going from `Cc1ccccc1S(=O)(=O)NC(=O)c1cn(C)c(SC(C)C)n1` [I-477] to `Cc1nc(C(=O)NS(=O)(=O)C(C)C)cn1-c1c(F)cccc1F` [I-005], the pest or weed control at 20 ppm rises from 90% to 100%.

`Cc1ccccc1S(=O)(=O)NC(=O)c1nc(Cl)n(C2CC2C(F)(F)F)c1Cl` (stereo not drawn) [I-462] and `O=C(NS(=O)(=O)c1ccccc1Cl)c1nc(Cl)n(C2CC2C(F)(F)F)c1Cl` (stereo not drawn) [I-469] are the same in pest or weed control at 20 ppm: 100% for the first, 100% for the second.

`O=C(NS(=O)(=O)c1ccccc1)c1cn(Cc2ccccc2Cl)cn1` [I-155] and `O=C(NS(=O)(=O)c1ccccc1)c1cn(Cc2ccccc2)cn1` [I-152] are the same in pest or weed control at 20 ppm: 100% for the first, 100% for the second.

Compared with `COc1ccc(Cl)c(S(=O)(=O)NC(=O)c2cn(-c3ccc(C(F)(F)F)cc3Cl)cn2)c1` [I-219], `COc1ccc(Cl)c(S(=O)(=O)NC(=O)c2cn(-c3cccc(C(F)(F)F)c3)cn2)c1` [I-178] is higher in pest or weed control at 20 ppm: 90% for the first, 100% for the second.

Compared with `O=C(NS(=O)(=O)c1c(Cl)cccc1Cl)c1cn(-c2cc(Br)cc(C(F)(F)F)c2)cn1` [I-297], `O=C(NS(=O)(=O)c1ccccc1Cl)c1cn(-c2cc(Br)cc(C(F)(F)F)c2)cn1` [I-277] is lower in pest or weed control at 20 ppm: 90% for the first, 70% for the second.

Going from `COc1cccc(S(=O)(=O)NC(=O)c2ncn(C(C)CC(F)(F)F)c2Cl)c1` (stereo not drawn) [I-074] to `COc1ccccc1S(=O)(=O)NC(=O)c1ncn(C(C)CC(F)(F)F)c1Cl` (stereo not drawn) [I-075], the pest or weed control at 20 ppm falls from 100% to 70%.

`Cc1nc(C(=O)NS(=O)(=O)c2ccc(Cl)cc2)cn1-c1ccc(Cl)cc1` [I-262] and `Cc1nc(C(=O)NS(=O)(=O)c2ccccc2)cn1-c1ccc(Cl)cc1` [I-256] are the same in pest or weed control at 20 ppm: 100% for the first, 100% for the second.

Going from `COc1ccc(Cl)c(S(=O)(=O)NC(=O)c2cn(-c3cc(C)cc(C)c3)cn2)c1` [I-288] to `Cc1cc(C)cc(-n2cnc(C(=O)NS(=O)(=O)c3ccccc3Cl)c2)c1` [I-283], the pest or weed control at 20 ppm falls from 100% to 90%.

`COc1cccc(S(=O)(=O)NC(=O)c2ncn(-c3ccc(C(F)(F)F)cc3)c2Cl)c1` [I-425] and `CCCn1cnc(C(=O)NS(=O)(=O)c2cccc(OC)c2)c1Cl` [I-043] are the same in pest or weed control at 20 ppm: 100% for the first, 100% for the second.

`COc1ccc(S(=O)(=O)NC(=O)c2cn(CCC(F)(F)F)cn2)cc1` [I-026] and `Cc1ccc(S(=O)(=O)NC(=O)c2cn(CC(F)(F)F)cn2)cc1` [I-024] are the same in pest or weed control at 20 ppm: 90% for the first, 90% for the second.

`COc1ccc(Cl)c(S(=O)(=O)NC(=O)c2ncn(-c3cccc(Cl)c3)c2C(C)C)c1` [I-488] and `COc1ccc(Cl)c(S(=O)(=O)NC(=O)c2cc(-c3cccc(Cl)c3)n(C)n2)c1` [I-129] are the same in pest or weed control at 20 ppm: 90% for the first, 90% for the second.

First: O=C(NS(=O)(=O)c1ccccc1)c1ncn(CC(F)(F)C(F)(F)F)c1Cl [I-077]
Second: CCCn1cnc(C(=O)NS(=O)(=O)c2ccccc2)c1Cl [I-038]
The pest or weed control at 20 ppm of the first is higher: 100% for the first, 90% for the second.

`COc1ccc(Cl)c(S(=O)(=O)NC(=O)c2cc(-c3cccc(C(F)(F)F)c3)n(C)n2)c1` [I-138] and `COc1ccc(Cl)c(S(=O)(=O)NC(=O)c2cc(-c3ncc(C(F)(F)F)cc3Cl)n(C)n2)c1` [I-139] are the same in pest or weed control at 20 ppm: 100% for the first, 100% for the second.

`Cc1nc(C(=O)NS(=O)(=O)c2c(Cl)cccc2Cl)cn1-c1ccccc1Cl` [I-265] and `Cc1nc(C(=O)NS(=O)(=O)c2c(Cl)cccc2Cl)cn1-c1cccc(C(F)(F)F)c1` [I-274] are the same in pest or weed control at 20 ppm: 90% for the first, 90% for the second.

Going from `O=C(NS(=O)(=O)c1ccccc1)c1cn(-c2ccccc2F)cn1` [I-221] to `O=C(NS(=O)(=O)c1ccccc1)c1cn(-c2ccc(Cl)c(Cl)c2)cn1` [I-193], the pest or weed control at 20 ppm rises from 90% to 100%.

`Cc1nc(C(=O)NS(=O)(=O)c2ccccc2)cn1-c1cc(Cl)cc(Cl)c1` [I-315] and `Cc1nc(C(=O)NS(=O)(=O)c2c(F)cccc2Cl)cn1-c1cc(Cl)cc(Cl)c1` [I-378] are the same in pest or weed control at 20 ppm: 100% for the first, 100% for the second.

`CCOc1ccc(Cl)c(S(=O)(=O)NC(=O)c2cn(-c3cc(Cl)cc(C(F)(F)F)c3)c(C)n2)c1` [I-324] and `CCc1nc(C(=O)NS(=O)(=O)c2cc(OC)ccc2Cl)cn1-c1cc(Cl)cc(C(F)(F)F)c1` [I-407] are the same in pest or weed control at 20 ppm: 100% for the first, 100% for the second.

`CCOc1ccc(Cl)c(S(=O)(=O)NC(=O)c2cn(-c3c(F)cccc3F)c(C)n2)c1` [I-364] and `COc1ccc(Cl)c(S(=O)(=O)NC(=O)c2cc(-c3c(F)cccc3F)n(C)n2)c1` [I-144] are the same in pest or weed control at 20 ppm: 90% for the first, 90% for the second.

`CC(=O)Oc1ccc(S(=O)(=O)NC(=O)c2ncn(CCC(F)(F)F)c2Cl)cc1` [I-031] and `CC(=O)Nc1ccc(S(=O)(=O)NC(=O)c2ncn(CCC(F)(F)F)c2Cl)cc1` [I-091] are the same in pest or weed control at 20 ppm: 90% for the first, 90% for the second.

Going from `O=C(NS(=O)(=O)c1ccc(Cl)cc1Cl)c1cn(-c2cc(Cl)c(Cl)c(Cl)c2)cn1` [I-306] to `O=C(NS(=O)(=O)c1ccccc1Cl)c1cn(-c2cc(Cl)cc(Cl)c2)cn1` [I-181], the pest or weed control at 20 ppm rises from 90% to 100%.

`COc1ccc(Cl)c(S(=O)(=O)NC(=O)c2cn(-c3cc(Cl)nc(Cl)c3)c(Cl)n2)c1` [I-439] and `COc1ccc(Cl)c(S(=O)(=O)NC(=O)c2cn(-c3cc(F)cc(Cl)c3)c(C)n2)c1` [I-321] are the same in pest or weed control at 20 ppm: 90% for the first, 90% for the second.

`O=C(NS(=O)(=O)c1ccc(Cl)cc1)c1ncn(C2CC2C(F)(F)F)c1Cl` (stereo not drawn) [I-062] and `O=C(NS(=O)(=O)c1cccc(Cl)c1)c1ncn(C2CC2C(F)(F)F)c1Cl` (stereo not drawn) [I-061] are the same in pest or weed control at 20 ppm: 90% for the first, 90% for the second.

Compared with `COc1ccc(Cl)c(S(=O)(=O)NC(=O)c2cn(-c3cc(F)cc(C(F)(F)F)c3)c(C)n2)c1` [I-332], `Cc1nc(C(=O)NS(=O)(=O)c2c(F)cccc2Cl)cn1-c1cc(F)cc(C(F)(F)F)c1` [I-400] is lower in pest or weed control at 20 ppm: 100% for the first, 90% for the second.

`O=C(NS(=O)(=O)c1c(Cl)cccc1Cl)c1cn(-c2ccc(Cl)cc2Cl)cn1` [I-206] and `O=C(NS(=O)(=O)c1c(Cl)cccc1Cl)c1cn(-c2cccc(Cl)c2)cn1` [I-175] are the same in pest or weed control at 20 ppm: 100% for the first, 100% for the second.

`COc1ccc(Br)c(S(=O)(=O)NC(=O)c2nc(Cl)n(CCC(F)(F)F)c2Cl)c1` [I-455] and `O=C(NS(=O)(=O)c1ccccc1Cl)c1nc(Cl)n(CCC(F)(F)F)c1Cl` [I-124] are the same in pest or weed control at 20 ppm: 100% for the first, 100% for the second.

`CCSc1cccc(Cl)c1S(=O)(=O)NC(=O)c1cn(-c2cc(Cl)cc(Cl)c2)c(C)n1` [I-375] and `CCSc1cccc(Cl)c1S(=O)(=O)NC(=O)c1cn(-c2cc(F)cc(Cl)c2)c(C)n1` [I-383] are the same in pest or weed control at 20 ppm: 100% for the first, 100% for the second.

`Cc1nc(C(=O)NS(=O)(=O)c2c(F)cccc2Cl)cn1-c1cc(Cl)cc(C(F)(F)F)c1` [I-399] and `Cc1nc(C(=O)NS(=O)(=O)c2c(Cl)cccc2Cl)cn1-c1cc(Cl)cc(C(F)(F)F)c1` [I-325] are the same in pest or weed control at 20 ppm: 90% for the first, 90% for the second.

First: Cn1nc(C(=O)NS(C)(=O)=O)cc1-c1cccc(Cl)n1 [I-126]
Second: Cn1nc(C(=O)NS(=O)(=O)c2cc(Cl)ccc2Cl)cc1-c1c(F)cccc1F [I-143]
The pest or weed control at 20 ppm of the first is higher: 100% for the first, 90% for the second.

First: O=C(NS(=O)(=O)c1c(F)cccc1F)c1cn(-c2ccccc2OC(F)(F)F)cn1 [I-224]
Second: O=C(NS(=O)(=O)c1c(F)cccc1F)c1cn(-c2ccc(C(F)(F)F)cc2Cl)cn1 [I-223]
The pest or weed control at 20 ppm of the first is lower: 90% for the first, 100% for the second.

First: O=C(NS(=O)(=O)c1ccccc1Cl)c1cn(-c2ccc(Cl)cc2)cn1 [I-185]
Second: Cc1nc(C(=O)NS(=O)(=O)c2ccccc2Cl)cn1-c1ccc(Cl)cc1 [I-257]
The pest or weed control at 20 ppm of the first is higher: 100% for the first, 90% for the second.

`Cc1nc(C(=O)NS(=O)(=O)c2cc(Cl)ccc2Cl)cn1-c1cc(Cl)cc(Cl)c1` [I-328] and `Cc1nc(C(=O)NS(=O)(=O)c2c(Cl)cccc2SC(C)C)cn1-c1cc(Cl)cc(Cl)c1` [I-376] are the same in pest or weed control at 20 ppm: 90% for the first, 90% for the second.

Compared with `COc1cc(C)c(S(=O)(=O)NC(=O)c2ncn(CCC(F)(F)F)c2Cl)c(C)c1` [I-036], `Cc1noc(C)c1S(=O)(=O)NC(=O)c1ncn(CCC(F)(F)F)c1Cl` [I-095] is lower in pest or weed control at 20 ppm: 100% for the first, 90% for the second.

`Cc1ccccc1S(=O)(=O)NC(=O)c1nc(C)n(-c2cc(Cl)cc(Cl)c2)c1Cl` [I-112] and `COc1ccc(Br)c(S(=O)(=O)NC(=O)c2cn(-c3cc(Cl)cc(Cl)c3)cn2)c1` [I-348] are the same in pest or weed control at 20 ppm: 100% for the first, 100% for the second.

`O=C(NS(=O)(=O)c1cccc(Cl)c1)c1ncn(CCCCl)c1Cl` [I-051] and `O=C(NS(=O)(=O)c1ccccc1)c1cn(Cc2cc(Cl)cc(Cl)c2)cn1` [I-167] are the same in pest or weed control at 20 ppm: 90% for the first, 90% for the second.

Going from `COc1ccc(Cl)c(S(=O)(=O)NC(=O)c2cn(-c3ccc(C)cc3)cn2)c1` [I-213] to `COc1ccc(Cl)c(S(=O)(=O)NC(=O)c2cn(-c3ccccc3OC(F)(F)F)cn2)c1` [I-227], the pest or weed control at 20 ppm rises from 90% to 100%.

`O=C(NS(=O)(=O)c1ccccc1C(F)(F)F)c1cn(-c2cc(Cl)cc(C(F)(F)F)c2)cn1` [I-295] and `O=C(NS(=O)(=O)c1ccccc1)c1cn(-c2cc(F)cc(F)c2)cn1` [I-237] are the same in pest or weed control at 20 ppm: 90% for the first, 90% for the second.

First: COc1ccc(Cl)cc1S(=O)(=O)NC(=O)c1cn(-c2cc(Cl)ccc2Cl)cn1 [I-231]
Second: COc1ccc(Br)c(S(=O)(=O)NC(=O)c2cn(-c3cc(F)cc(Cl)c3)c(C)n2)c1 [I-370]
The pest or weed control at 20 ppm of the first is higher: 100% for the first, 70% for the second.

— patent publication US10820591B2, “Substituted sulfonyl amides for controlling animal pests” (Bayer Aktiengesellschaft, priority 2016, dated 2020)
